# Source: ChEMBL document CHEMBL1156449, “The nucleoside analog sangivamycin induces apoptotic cell death in breast carcinoma MCF7/adriamycin-resistant cells via protein kinase Cdelta and JNK activation” (J Biol Chem, 2007)
# The source made the active and inactive calls. No cut-off for these calls is given here.
# Legend:
# [1] = Cell cycle arrest in human drug-sensitive MCF/WT cells assessed as accumulation at S phase at 0.3 uM after 24 hrs by propidium fluorescence flow cytometry; assay type: functional, cell-based
# [2] = Cell cycle arrest in human multidrug resistant MCF/ADR cells assessed as accumulation at G0/G1 phase at 0.3 uM after 24 hrs by propidium fluorescence flow cytometry; assay type: functional, cell-based
# MCF/ADR [3] = assay: Inhibition of induction of apoptosis in human multidrug resistant MCF/ADR cells assessed as inhibition of cleavage of lamin A at 0.3 uM after 48 hrs by immunoblot analysis in presence of caspase 9-specific inhibitor; assay type: functional, cell-based
# [4] = molecular target: Transcription factor Jun (Homo sapiens) (UniProt P05412); assay: Reduction in induction of phosphorylated form of c-Jun in SP600125 pretreated human multidrug resistant MCF/ADR cells at 0.3 uM after 48 hrs by immunoblot analysis; assay type: cell-based
# [5] = Cell cycle arrest in human drug-sensitive MCF/WT cells assessed as accumulation at G2/M phase at 0.3 uM after 72 hrs by propidium fluorescence flow cytometry; assay type: functional, cell-based
# MCF/ADR [6] = assay: Increase in Bcl-2 levels in human multidrug resistant MCF/ADR cells at 0.3 uM by immunoblot analysis; assay type: functional, cell-based
# MCF/ADR [7] = assay: Induction of c-Jun expression in human multidrug resistant MCF/ADR cells at 0.3 uM; assay type: functional, cell-based
# [8] = molecular target: c-Jun N-terminal kinase, JNK (Homo sapiens) (UniProt P45983+P53779+P45984); assay: Induction of JNK phosphorylation in human multidrug resistant MCF/ADR cells transfected with PKCdelta siRNA at 0.3 uM after 48 hrs by immunocytochemical analysis; assay type: cell-based
# [9] = Cell cycle arrest in human drug-sensitive MCF/WT cells assessed as accumulation at G0/G1 phase at 0.3 uM after 24 hrs by propidium fluorescence flow cytometry; assay type: functional, cell-based
# MCF/ADR [10] = assay: Increase in Bax levels in human multidrug resistant MCF/ADR cells at 0.3 uM by immunoblot analysis; assay type: functional, cell-based
# [11] = Cell cycle arrest in human multidrug resistant MCF/ADR cells assessed as accumulation at sub G0/G1 phase at 0.3 uM after 48 hrs by propidium fluorescence flow cytometry; assay type: functional, cell-based
# MCF/ADR [12] = assay: Induction of JNK p54 isoform phosphorylation in human multidrug resistant MCF/ADR cells at 0.3 uM after 48 hrs by immunoblot analysis; assay type: cell-based
# [13] = Cell cycle arrest in human drug-sensitive MCF/WT cells assessed as accumulation at S phase at 0.3 uM after 72 hrs by propidium fluorescence flow cytometry; assay type: functional, cell-based
# MCF-10A = assay: Induction of apoptosis in human MCF10A cells assessed as accumulation of PARP at 0.3 uM after 48 hrs by immunoblot analysis; assay type: functional, cell-based
# [14] = Cell cycle arrest in human multidrug resistant MCF/ADR cells assessed as accumulation at S phase at 0.3 uM after 24 hrs by propidium fluorescence flow cytometry; assay type: functional, cell-based
# MCF/ADR [15] = assay: Reduction in induction of apoptosis in SP600125 pretreated human multidrug resistant MCF/ADR cells assessed as reduction of cleavage of lamin A at 0.3 uM after 48 hrs by immunoblot analysis; assay type: functional, cell-based
# MCF/WT [16] = assay: Increase in p21CIP accumulation in human drug-sensitive MCF/WT cells at 0.3 uM after 48 hrs by immunoblot analysis; assay type: functional, cell-based
# MCF/WT [17] = assay: Increase in Bcl-2 levels in human drug-sensitive MCF/WT cells at 0.3 uM by immunoblot analysis; assay type: functional, cell-based
# [18] = Inhibition of PKC
# [19] = Reduction in induction of c-Jun expression in human multidrug resistant MCF/ADR cells at 0.3 uM after 48 hrs by immunoblot analysis in presence of rottlerin; assay type: functional, cell-based
# [20] = Effect on cell morphology in human multidrug resistant MCF/ADR cells assessed as floating cells with intact plasma membrane at 0.3 uM after 72 hrs by trypan blue dye exclusion test; assay type: functional
# MCF/ADR [21] = assay: Increase in Bcl-x/s levels in human multidrug resistant MCF/ADR cells at 0.3 uM by immunoblot analysis; assay type: functional, cell-based
# MCF/ADR [22] = assay: Induction of apoptosis in human multidrug resistant MCF/ADR cells assessed as activation of caspase 9 at 0.3 uM by immunoblot analysis; assay type: functional, cell-based
# [23] = Cell cycle arrest in human multidrug resistant MCF/ADR cells assessed as accumulation at sub G0/G1 phase at 0.3 uM after 24 hrs by propidium fluorescence flow cytometry; assay type: functional, cell-based
# Chain of Transcription factor Jun (Homo sapiens) (P05412 whole entry): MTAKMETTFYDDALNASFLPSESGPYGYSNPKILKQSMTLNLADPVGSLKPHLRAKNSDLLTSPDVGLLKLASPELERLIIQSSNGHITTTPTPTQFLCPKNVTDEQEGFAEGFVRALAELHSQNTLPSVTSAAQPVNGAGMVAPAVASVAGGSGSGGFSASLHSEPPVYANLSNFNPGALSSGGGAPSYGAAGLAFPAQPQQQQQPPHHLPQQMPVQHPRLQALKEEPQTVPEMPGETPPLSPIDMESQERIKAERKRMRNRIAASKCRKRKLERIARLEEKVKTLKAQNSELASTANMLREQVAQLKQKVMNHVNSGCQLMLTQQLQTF
smiles,measurement,setting,value
NC(=O)c1cn([C@@H]2O[C@H](CO)[C@@H](O)[C@H]2O)c2ncnc(N)c12 [SANGIVAMYCIN],Activity,[1],23%
same,Activity,[2],33%
same,Activity,MCF/ADR [3],Active
same,Activity,[4],Active
same,Activity,[5],28%
same,Activity,MCF/ADR [6],inactive
same,Activity,MCF/ADR [7],Active
same,Activity,[8],inactive
same,Activity,[9],48%
same,Activity,MCF/ADR [10],Active
same,Activity,[11],40%
same,Activity,MCF/ADR [12],Active
same,Activity,[13],11%
same,Activity,MCF-10A,inactive
same,Activity,[14],25%
same,Activity,MCF/ADR [15],Active
same,Activity,MCF/WT [16],Active
same,Activity,MCF/WT [17],Active
same,Ki,[18],10 µM
same,Activity,[19],Active
same,Activity,[20],95%
same,Activity,MCF/ADR [21],Active
same,Activity,MCF/ADR [22],Active
same,Activity,[23],9%
